From ChEMBL document CHEMBL1687752, “Impact of antifungal prophylaxis on colonization and azole susceptibility of Candida species” (2009)
≈ marks a conversion by molar mass, not a printed value.

How the values were obtained:
Type in all cases: functional
Nakaseomyces glabratus [1] = experiment: Ratio of ERG11 gene expression in Candida glabrata isolated from patient 002 receiving antifungal drug to ERG11 gene expression in Candida glabrata isolated from patient 002 by RT-PCR analysis
Nakaseomyces glabratus [2] = experiment: Ratio of CDR1 gene expression in Candida glabrata isolated from patient 807 receiving antifungal drug to CDR1 gene expression in Candida glabrata isolated from patient 807 by RT-PCR analysis
Pichia kudriavzevii [3] = experiment: Antifungal activity against Candida krusei isolated from neutropenic subjects with AML or MDS receiving fluconazole assessed as maximum MIC by broth microdilution method
Nakaseomyces glabratus [4] = experiment: Ratio of URA3 gene expression in Candida glabrata isolated from patient 002 receiving antifungal drug to URA3 gene expression in Candida glabrata isolated from patient 002 by RT-PCR analysis
Candida albicans [5] = experiment: Antifungal activity against Candida albicans isolated from HSCT recipient 262 with acute or chronic GVHD mouth after 115 days prophylaxis by broth microdilution method
Pichia kudriavzevii [6] = experiment: Antifungal activity against 8 days cultured Candida krusei isolated from neutropenic subject with AML or MDS stool after 12 days of prophylaxis by broth microdilution method
Nakaseomyces glabratus [7] = experiment: Antifungal activity against -2 days cultured Candida glabrata isolated from HSCT recipient with acute or chronic GVHD mouth receiving antifungal therapy for 168 days after 113 days of prophylaxis by broth microdilution method
Candida albicans [8] = experiment: Antifungal activity against Candida albicans isolated from HSCT recipients with acute or chronic GVHD receiving fluconazole assessed as maximum MIC by broth microdilution method
Nakaseomyces glabratus [9] = experiment: Ratio of CDR1 gene expression in Candida glabrata isolated from patient 491 receiving antifungal drug to CDR1 gene expression in Candida glabrata isolated from patient 491 by RT-PCR analysis
Nakaseomyces glabratus [10] = experiment: Ratio of URA3 gene expression in Candida glabrata isolated from patient 497 receiving antifungal drug to URA3 gene expression in Candida glabrata isolated from patient 497 by RT-PCR analysis
Nakaseomyces glabratus [11] = experiment: Antifungal activity against Candida glabrata isolated from neutropenic subject 1331 with AML or MDS pharynx after 21 days prophylaxis by broth microdilution method; settings: 504 h
Nakaseomyces glabratus [12] = experiment: Ratio of ERG11 gene expression in Candida glabrata isolated from patient 491 receiving antifungal drug to ERG11 gene expression in Candida glabrata isolated from patient 491 by RT-PCR analysis
Nakaseomyces glabratus [13] = experiment: Ratio of ERG11 gene expression in Candida glabrata isolated from patient 807 receiving antifungal drug to ERG11 gene expression in Candida glabrata isolated from patient 807 by RT-PCR analysis
Candida tropicalis [14] = experiment: Antifungal activity against -3 days cultured Candida tropicalis isolated from neutropenic subject with AML or MDS pharynx receiving antifungal therapy for 45 days after 24 days of prophylaxis by broth microdilution method
Nakaseomyces glabratus [15] = experiment: Ratio of CDR2 gene expression in Candida glabrata isolated from patient 497 receiving antifungal drug to CDR2 gene expression in Candida glabrata isolated from patient 497 by RT-PCR analysis
Nakaseomyces glabratus [16] = experiment: Antifungal activity against Candida glabrata isolated from HSCT recipient 474 with acute or chronic GVHD mouth receiving antifungal drug after 124 days prophylaxis by broth microdilution method
Nakaseomyces glabratus [17] = experiment: Ratio of ERG11 gene expression in Candida glabrata isolated from patient 497 receiving antifungal drug to ERG11 gene expression in Candida glabrata isolated from patient 497 by RT-PCR analysis
Nakaseomyces glabratus [18] = experiment: Ratio of CDR1 gene expression in Candida glabrata isolated from patient 002 receiving antifungal drug to CDR1 gene expression in Candida glabrata isolated from patient 002 by RT-PCR analysis
Nakaseomyces glabratus [19] = experiment: Ratio of URA3 gene expression in Candida glabrata isolated from patient 807 receiving antifungal drug to URA3 gene expression in Candida glabrata isolated from patient 807 by RT-PCR analysis
Nakaseomyces glabratus [20] = experiment: Antifungal activity against Candida glabrata isolated from HSCT recipient 186 with acute or chronic GVHD mouth receiving antifungal drug after 112 days prophylaxis by broth microdilution method
Nakaseomyces glabratus [21] = experiment: Ratio of CDR1 gene expression in Candida glabrata isolated from patient 497 receiving antifungal drug to CDR1 gene expression in Candida glabrata isolated from patient 497 by RT-PCR analysis
Nakaseomyces glabratus [22] = experiment: Antifungal activity against 36 days cultured Candida glabrata isolated from neutropenic subject with AML or MDS pharynx after 48 days of prophylaxis by broth microdilution method
Nakaseomyces glabratus [23] = experiment: Ratio of URA3 gene expression in Candida glabrata isolated from patient 491 receiving antifungal drug to URA3 gene expression in Candida glabrata isolated from patient 491 by RT-PCR analysis
Nakaseomyces glabratus [24] = experiment: Ratio of CDR2 gene expression in Candida glabrata isolated from patient 002 receiving antifungal drug to CDR2 gene expression in Candida glabrata isolated from patient 002 by RT-PCR analysis
Nakaseomyces glabratus [25] = experiment: Antifungal activity against Candida glabrata isolated from neutropenic subjects with AML or MDS prior to initiation of fluconazole therapy assessed as maximum MIC by broth microdilution method
Candida albicans [26] = experiment: Antifungal activity against Candida albicans isolated from HSCT recipient 928 with acute or chronic GVHD mouth after 112 days prophylaxis by broth microdilution method
Candida tropicalis [27] = experiment: Antifungal activity against 2 days cultured Candida tropicalis isolated from neutropenic subject with AML or MDS stool receiving antifungal therapy for 45 days after 24 days of prophylaxis by broth microdilution method
Nakaseomyces glabratus [28] = experiment: Antifungal activity against 16 days cultured Candida glabrata isolated from invasive fungal infected subject blood after 17 days of prophylaxis by broth microdilution method
Nakaseomyces glabratus [29] = experiment: Ratio of CDR1 gene expression in Candida glabrata isolated from patient 975 receiving antifungal drug to CDR1 gene expression in Candida glabrata isolated from patient 975 by RT-PCR analysis
Nakaseomyces glabratus [30] = experiment: Ratio of CDR1 gene expression in Candida glabrata isolated from patient 186 receiving antifungal drug to CDR1 gene expression in Candida glabrata isolated from patient 186 by RT-PCR analysis
Nakaseomyces glabratus [31] = experiment: Antifungal activity against Candida glabrata isolated from HSCT recipient 491 with acute or chronic GVHD mouth after 112 days prophylaxis by broth microdilution method
Nakaseomyces glabratus [32] = experiment: Ratio of URA3 gene expression in Candida glabrata isolated from patient 975 receiving antifungal drug to URA3 gene expression in Candida glabrata isolated from patient 975 by RT-PCR analysis
Nakaseomyces glabratus [33] = experiment: Ratio of ERG11 gene expression in Candida glabrata isolated from patient 186 receiving antifungal drug to ERG11 gene expression in Candida glabrata isolated from patient 186 by RT-PCR analysis
Nakaseomyces glabratus [34] = experiment: Ratio of CDR2 gene expression in Candida glabrata isolated from patient 975 receiving antifungal drug to CDR2 gene expression in Candida glabrata isolated from patient 975 by RT-PCR analysis
Nakaseomyces glabratus [35] = experiment: Ratio of ERG11 gene expression in Candida glabrata isolated from patient 975 receiving antifungal drug to ERG11 gene expression in Candida glabrata isolated from patient 975 by RT-PCR analysis
Nakaseomyces glabratus [36] = experiment: Ratio of CDR2 gene expression in Candida glabrata isolated from patient 186 receiving antifungal drug to CDR2 gene expression in Candida glabrata isolated from patient 186 by RT-PCR analysis
Nakaseomyces glabratus [37] = experiment: Ratio of URA3 gene expression in Candida glabrata isolated from patient 186 receiving antifungal drug to URA3 gene expression in Candida glabrata isolated from patient 186 by RT-PCR analysis

SMILES	MIC (Pichia kudriavzevii [3]) [µg/mL]	MIC (Candida albicans [5]) [µg/mL]	MIC (Pichia kudriavzevii [6]) [µg/mL]	MIC (Nakaseomyces glabratus [7]) [µg/mL]	MIC (Candida albicans [8]) [µg/mL]	MIC (Nakaseomyces glabratus [11]) [µg/mL]	MIC (Candida tropicalis [14]) [µg/mL]	MIC (Nakaseomyces glabratus [16]) [µg/mL]	MIC (Nakaseomyces glabratus [20]) [µg/mL]	MIC (Nakaseomyces glabratus [22]) [µg/mL]	MIC (Nakaseomyces glabratus [25]) [µg/mL]	MIC (Candida albicans [26]) [µg/mL]	MIC (Candida tropicalis [27]) [µg/mL]	MIC (Nakaseomyces glabratus [28]) [µg/mL]	further results
OC(Cn1cncn1)(Cn1cncn1)c1ccc(F)cc1F [FLUCONAZOLE]	64	0.25 (≈ 0.816 µM)	> 64	64 (≈ 209 µM)	64	8 (≈ 26.1 µM)	0.5 (≈ 1.63 µM)	64 (≈ 209 µM)	32 (≈ 104 µM)	8 (≈ 26.1 µM)	64	< 0.125	0.25 (≈ 0.816 µM)		fold change (FC) (Nakaseomyces glabratus [1]): -1.2; fold change (FC) (Nakaseomyces glabratus [2]): 4.3; fold change (FC) (Nakaseomyces glabratus [4]): -1.2; fold change (FC) (Nakaseomyces glabratus [9]): 4.5; fold change (FC) (Nakaseomyces glabratus [10]): -1.2; fold change (FC) (Nakaseomyces glabratus [12]): 1.2; fold change (FC) (Nakaseomyces glabratus [13]): 1.1; fold change (FC) (Nakaseomyces glabratus [15]): -1.2; fold change (FC) (Nakaseomyces glabratus [17]): -1.2; fold change (FC) (Nakaseomyces glabratus [18]): 1.5; fold change (FC) (Nakaseomyces glabratus [19]): 1.4; fold change (FC) (Nakaseomyces glabratus [21]): 1.3; fold change (FC) (Nakaseomyces glabratus [23]): 1; fold change (FC) (Nakaseomyces glabratus [24]): -1.2
CCC(C)n1ncn(-c2ccc(N3CCN(c4ccc(OCC5COC(Cn6cncn6)(c6ccc(Cl)cc6Cl)O5)cc4)CC3)cc2)c1=O (centres undefined) [ITRACONAZOLE]	1	< 0.015	0.25 (≈ 0.354 µM)	1 (≈ 1.42 µM)	16	1 (≈ 1.42 µM)	0.03 (≈ 0.0425 µM)	8 (≈ 11.3 µM)	2 (≈ 2.83 µM)	1 (≈ 1.42 µM)	8	< 0.015	< 0.015	> 8	
CC[C@@H]([C@H](C)O)n1ncn(-c2ccc(N3CCN(c4ccc(OC[C@@H]5CO[C@@](Cn6cncn6)(c6ccc(F)cc6F)C5)cc4)CC3)cc2)c1=O [POSACONAZOLE]	0.25	< 0.015	0.125 (≈ 0.178 µM)	1 (≈ 1.43 µM)	16	2 (≈ 2.85 µM)	< 0.015	4 (≈ 5.71 µM)	2 (≈ 2.85 µM)	1 (≈ 1.43 µM)	8	< 0.015	< 0.015	> 8	fold change (FC) (Nakaseomyces glabratus [29]): 2.25; fold change (FC) (Nakaseomyces glabratus [30]): -1.5; MIC (Nakaseomyces glabratus [31]): 0.25 µg/mL (≈ 0.357 µM); fold change (FC) (Nakaseomyces glabratus [32]): 1.2; fold change (FC) (Nakaseomyces glabratus [33]): -1.4; fold change (FC) (Nakaseomyces glabratus [34]): 1.5; fold change (FC) (Nakaseomyces glabratus [35]): 1.6; fold change (FC) (Nakaseomyces glabratus [36]): -1.45; fold change (FC) (Nakaseomyces glabratus [37]): -1.4
